Reference: patent US20100298141A1, “SUBSTITUTED PYRIDINE N-OXIDE HERBICIDES” (E. I. DU PONT DE NEMOURS AND COMPANY, priority 2007, published 2010)

Tests used:
Surinam grass = assay: Test C pre-/postemergence test; type: in vivo, Brachiaria decumbens; conditions: Preemergence
Outline: (§1)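 Test chemicals were formulated with surfactant in a non-phytotoxic solvent and sprayed both on freshly planted seeds (preemergence) and on 1- to 4-leaf plants of 2–18 cm (postemergence). Flooded-paddy pots received compound directly into 3 cm of standing water, maintained for the test.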

giant foxtail [1] = assay: Test C pre-/postemergence test; type: in vivo, Setaria faberii; conditions: Preemergence
Outline: as §1

lambsquarters = assay: Test C pre-/postemergence test; type: in vivo, Chenopodium album; conditions: Preemergence
Outline: as §1

Goosegrass = assay: Test C pre-/postemergence test; type: in vivo, Eleusin indica; conditions: Preemergence
Outline: as §1

johnsongrass = assay: Test C pre-/postemergence test; type: in vivo, Sorghum halepense; conditions: Preemergence
Outline: as §1

bermudagrass = assay: Test C pre-/postemergence test; type: in vivo, Cynodon dactylon
Outline: as §1

rice = assay: Test C flooded paddy test; type: in vivo, Oryza sativa; conditions: Flood
Outline: (§2)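 Flooded 3 cm over soil; compound into paddy water; depth kept constant. Greenhouse 13–15 d.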

duck salad = assay: Test C flooded paddy test; type: in vivo, Heteranthera limosa; conditions: Flood
Outline: as §2

wild oat = assay: Test C pre-/postemergence test; type: in vivo, Avena fatua; conditions: Preemergence
Outline: as §1

giant foxtail [2] = assay: Test A pre-/postemergence greenhouse test; type: in vivo, Setaria faberi; conditions: for Foxtail, Giant plant response rating: 0 to 100 scale
Outline: (§3)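 Seeds sown in a loam soil–sand blend got a preemergence directed soil spray of compound in a non-phytotoxic solvent mixture containing surfactant. Postemergence sprays of the same formulation went at the same time onto plants 2–10 cm tall at the one- to two-leaf stage. Injury was scored visually against untreated controls after about ten days in the greenhouse.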

common ragweed = assay: Test C pre-/postemergence test; type: in vivo, Ambrosia elation; conditions: Preemergence, 31 g ai/ha; scale 0 to 100 (0 no effect, 100 complete control)
Outline: as §1

barnyardgrass = assay: Test C flooded paddy test; type: in vivo, Echinochloa crus-galli; conditions: Flood
Outline: as §2

velvetleaf [3] = assay: Test A pre-/postemergence greenhouse test; type: in vivo, Abutilon theophrasti; conditions: for Velvetleaf plant response rating: 0 to 100 scale
Outline: as §3

redroot pigweed = assay: Test A pre-/postemergence greenhouse test; type: in vivo, Amaranthus retroflexus; conditions: for Pigweed plant response rating: 0 to 100 scale
Outline: as §3

corn = assay: Test A pre-/postemergence greenhouse test; type: in vivo, Zea mays; conditions: for Corn plant response rating: 0 to 100 scale
Outline: as §3

wheat = assay: Test A pre-/postemergence greenhouse test; type: in vivo, Triticum aestivum; conditions: for Wheat plant response rating: 0 to 100 scale
Outline: as §3

eastern black nightshade = assay: Test C pre-/postemergence test; type: in vivo, Solanum ptycanthum; conditions: Preemergence
Outline: as §1

velvetleaf [4] = assay: Test C pre-/postemergence test; type: in vivo, Abutilon theophrasti; conditions: Preemergence
Outline: as §1

[5] = 31 g ai/ha, scale 0 to 100 (0 no effect, 100 complete control)
[6] = 62 g ai/ha, scale 0 to 100, 0 no effect, 100 complete control, 13 to 15 days
[7] = 125 g ai/ha, scale 0 to 100, 0 no effect, 100 complete control, 13 to 15 days
[8] = 250 g ai/ha, scale 0 to 100 (0 no effect, 100 complete control)
[9] = Postemergence, 125 g ai/ha, 0 is no effect, 100 is complete control
[10] = Postemergence, 500 g ai/ha, 0 is no effect, 100 is complete control
[11] = Preemergence, 125 g ai/ha, 0 no effect, 100 complete control
[12] = Preemergence, 500 g ai/ha, 0 to 100 scale where 0 is no effect and 100 is complete control

Cc1cc[n+]([O-])c([S+]([O-])Cc2c(C(F)(F)F)nn(C)c2Cl)c1 (racemic) [Compound 20]
Surinam Grass plant response rating (Surinam grass; 62 g ai/ha, scale 0 to 100): 70
Plant response rating, Surinam Grass (Surinam grass; [5]): 0
Foxtail, Giant plant response rating (giant foxtail [1]; 62 g ai/ha, scale 0 to 100): 98
Plant response rating, Foxtail, Giant (giant foxtail [1]; [5]): 85
Plant response rating (0 to 100), Foxtail, Giant (giant foxtail [1]; 250 g ai/ha): 100
Lambsquarters plant response rating (lambsquarters; 62 g ai/ha, scale 0 to 100): 100
Plant response rating, Lambsquarters (lambsquarters; [5]): 90
Goosegrass plant response rating (Goosegrass; 62 g ai/ha, scale 0 to 100): 100
Plant response rating, Goosegrass (Goosegrass; [5]): 85
Plant response rating (0 to 100), Goosegrass (Goosegrass; 250 g ai/ha): 100
Johnsongrass plant response rating (johnsongrass; 62 g ai/ha, scale 0 to 100): 80
Plant response rating, Johnsongrass (johnsongrass; [5]): 60
Plant response rating (0 to 100), Johnsongrass (johnsongrass; 250 g ai/ha): 100
Bermudagrass plant response rating (bermudagrass; 62 g ai/ha, Preemergence, scale 0 to 100 (0 no effect, 100 complete control)): 85
Plant response rating, Bermudagrass (bermudagrass; Preemergence, 31 g ai/ha, scale 0 to 100 (0 no effect, 100 complete control)): 55
Plant response rating (0 to 100), Bermudagrass (bermudagrass; Preemergence, 250 g ai/ha): 100
Bermudagrass plant response rating (bermudagrass; preemergence, 125 g ai/ha, scale 0 (no effect) to 100 (complete control)): 100
Plant response rating, Rice (rice; [5]): 0
Plant response rating, Rice (rice; [6]): 0
Plant response rating, Rice (rice; [7]): 0
Plant response rating, Rice (rice; [8]): 30
Plant response rating, Ducksalad (duck salad; [5]): 0
Plant response rating, Ducksalad (duck salad; [6]): 0
Plant response rating, Ducksalad (duck salad; [7]): 0
Plant response rating, Ducksalad (duck salad; [8]): 75
Oat, Wild plant response rating (wild oat; 62 g ai/ha, scale 0 to 100): 10
Plant response rating, Oat, Wild (wild oat; [5]): 0
Foxtail, Giant plant response rating (giant foxtail [2]; [9]): 50
Foxtail, Giant plant response rating (giant foxtail [2]; [10]): 80
Foxtail, Giant plant response rating (giant foxtail [2]; [11]): 80
Plant response rating, Foxtail, Giant (giant foxtail [2]; [12]): 100
Plant response rating, Ragweed (common ragweed): 0
Plant response rating, Barnyardgrass (barnyardgrass; [5]): 0
Plant response rating, Barnyardgrass (barnyardgrass; [6]): 0
Plant response rating, Barnyardgrass (barnyardgrass; [7]): 30
Plant response rating, Barnyardgrass (barnyardgrass; [8]): 70
Velvetleaf plant response rating (velvetleaf [3]; [9]): 30
Velvetleaf plant response rating (velvetleaf [3]; [10]): 60
Velvetleaf plant response rating (velvetleaf [3]; [11]): 0
Plant response rating, Velvetleaf (velvetleaf [3]; [12]): 60
Pigweed plant response rating (redroot pigweed; [9]): 40
Pigweed plant response rating (redroot pigweed; [10]): 70
Pigweed plant response rating (redroot pigweed; [11]): 90
Plant response rating, Pigweed (redroot pigweed; [12]): 100
Corn plant response rating (corn; [9]): 0
Corn plant response rating (corn; [10]): 70
Corn plant response rating (corn; [11]): 30
Plant response rating, Corn (corn; [12]): 60
Wheat plant response rating (wheat; [9]): 0
Wheat plant response rating (wheat; [10]): 60
Wheat plant response rating (wheat; [11]): 30
Plant response rating, Wheat (wheat; [12]): 80
Nightshade plant response rating (eastern black nightshade; 62 g ai/ha, scale 0 to 100): 85
Plant response rating, Nightshade (eastern black nightshade; [5]): 80
Velvetleaf plant response rating (velvetleaf [4]; 62 g ai/ha, scale 0 to 100): 5
Plant response rating, Velvetleaf (velvetleaf [4]; [5]): 0
